Source: ChEMBL document CHEMBL1201862, “PubChem BioAssay data set” (2004)
Several values for one entry are separate records, joined by “and”; a condition that tells them apart may be missing. Equal entries are not always repeated.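 The compound was tested at five concentrations on cells cultured in 96-well plates, with a 48-hour exposure period. GI50: concentration for 50% inhibition of growth.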 Activity calls are given as the source filed them. No stated cut-off is given here; in the data, active = GI50 up to about 1.1 µM and inactive = higher.

Experiments:
Assay in all cases: NCI-60 cell line screen, 48 h
SK-OV-3 = test system: SK-OV-3
HCT-116 = test system: HCT-116
SN12C = test system: SN12C
CAKI-1 = test system: CAKI-1
A549 = test system: A549
SK-MEL-28 = test system: SK-MEL-28
K562 = test system: K562
OVCAR-3 = test system: OVCAR-3
MCF7 = test system: MCF7
786-0 = test system: 786-0
COLO 205 = test system: COLO 205
PC-3 = test system: PC-3
HL-60 = test system: HL-60
HCT-15 = test system: HCT-15
HOP-92 = test system: HOP-92
SK-MEL-2 = test system: SK-MEL-2
RXF 393 = test system: RXF 393
HT-29 = test system: HT-29
NCI-H460 = test system: NCI-H460
Hs-578T = test system: Hs-578T
U-251 = test system: U-251
UO-31 = test system: UO-31
EKVX = test system: EKVX
SF-295 = test system: SF-295
NCI-H23 = test system: NCI-H23
NCI/ADR-RES = test system: NCI/ADR-RES
UACC-62 = test system: UACC-62
Malme-3M = test system: Malme-3M
SF-539 = test system: SF-539
MOLT-4 = test system: MOLT-4
DU-145 = test system: DU-145
T47D = test system: T47D
M14 = test system: M14
SF-268 = test system: SF-268
UACC-257 = test system: UACC-257
SNB-75 = test system: SNB-75
TK-10 = test system: TK-10
IGROV-1 = test system: IGROV-1
KM12 = test system: KM12
SR = test system: SR
NCI-H522 = test system: NCI-H522
NCI-H226 = test system: NCI-H226
OVCAR-5 = test system: OVCAR-5
SNB-19 = test system: SNB-19
HOP-62 = test system: HOP-62
RPMI-8226 = test system: RPMI-8226
MDA-MB-435 = test system: MDA-MB-435
BT-549 = test system: BT-549
SK-MEL-5 = test system: SK-MEL-5
MDA-MB-231 = test system: MDA-MB-231
A498 = test system: A498
LOX IMVI = test system: LOX IMVI
OVCAR-8 = test system: OVCAR-8
SW-620 = test system: SW-620
CCRF-CEM = test system: CCRF-CEM
MDA-N = test system: MDA-N
HCC 2998 = test system: HCC 2998

In the case of CC[C@@]12CCC(=S)N(CCSc3ccccc3)[C@@H]1c1c(n(S(=O)(=O)c3ccc(OC)cc3)c3ccccc13)CC2, the GI50 (SK-OV-3) is reported as > 100 µM (inactive), the GI50 (HCT-116) is reported as > 100 µM (inactive) and the GI50 (SN12C) is reported as > 100 µM (inactive). For the same compound, the GI50 (CAKI-1) was > 100 µM (inactive), the GI50 (A549) was > 100 µM (inactive) and the GI50 (SK-MEL-28) was > 100 µM (inactive). For the same compound, the GI50 (K562) was > 100 µM (inactive), the GI50 (OVCAR-3) was > 100 µM (inactive) and the GI50 (MCF7) was > 100 µM (inactive). For the same compound, the GI50 (786-0) was 63.1 µM (inactive), the GI50 (COLO 205) was > 100 µM (inactive) and the GI50 (PC-3) was > 100 µM (inactive). For the same compound, the GI50 (HL-60) was > 100 µM (inactive), the GI50 (HCT-15) was > 100 µM and the GI50 (HOP-92) was 73.6 µM (inactive). For the same compound, the GI50 (SK-MEL-2) was > 100 µM (inactive), the GI50 (RXF 393) was 24.1 µM (inactive) and the GI50 (HT-29) was > 100 µM (inactive). The GI50 (NCI-H460) was > 100 µM (inactive), the GI50 (Hs-578T) was > 100 µM (inactive) and the GI50 (U-251) was > 100 µM (inactive). For the same compound, the GI50 (UO-31) was > 100 µM (inactive), the GI50 (EKVX) was > 100 µM (inactive) and the GI50 (SF-295) was > 100 µM (inactive). For the same compound, the GI50 (NCI-H23) was > 100 µM (inactive), the GI50 (NCI/ADR-RES) was > 100 µM (inactive) and the GI50 (UACC-62) was > 100 µM (inactive). For the same compound, the GI50 (Malme-3M) was > 100 µM (inactive), the GI50 (SF-539) was 88.1 µM (inactive) and the GI50 (MOLT-4) was > 100 µM (inactive). For the same compound, the GI50 (DU-145) was > 100 µM (inactive), the GI50 (T47D) was > 100 µM (inactive) and the GI50 (M14) was > 100 µM (inactive). For the same compound, the GI50 (SF-268) was > 100 µM (inactive), the GI50 (UACC-257) was > 100 µM (inactive) and the GI50 (SNB-75) was 46.3 µM (inactive). For the same compound, the GI50 (TK-10) was 52 µM (inactive), the GI50 (IGROV-1) was > 100 µM (inactive) and the GI50 (KM12) was > 100 µM (inactive). For the same compound, the GI50 (SR) was > 100 µM (inactive), the GI50 (NCI-H522) was > 100 µM (inactive) and the GI50 (NCI-H226) was 68.1 µM (inactive). The GI50 (OVCAR-5) was > 100 µM (inactive), the GI50 (SNB-19) was 32.9 µM (inactive) and the GI50 (HOP-62) was > 100 µM (inactive). For the same compound, the GI50 (RPMI-8226) was > 100 µM (inactive), the GI50 (MDA-MB-435) was > 100 µM (inactive) and the GI50 (BT-549) was 48.1 µM (inactive). For the same compound, the GI50 (SK-MEL-5) was > 100 µM (inactive), the GI50 (MDA-MB-231) was > 100 µM (inactive) and the GI50 (A498) was > 100 µM (inactive). The GI50 (LOX IMVI) was > 100 µM (inactive), the GI50 (OVCAR-8) was > 100 µM (inactive) and the GI50 (SW-620) was > 100 µM (inactive). For the same compound, the GI50 (CCRF-CEM) was > 100 µM (inactive).
For COc1ccc(-c2c3c(n(C4OC(COC(C)=O)C(OC(C)=O)C(OC(C)=O)C4OC(C)=O)c(=S)c2C#N)CC(C)(C)CC3=O)cc1 (stereo not drawn), the GI50 (SK-OV-3) was 96.2 µM (inactive), the GI50 (SN12C) was > 100 µM (inactive) and 55.3 µM (inactive) and the GI50 (MDA-N) was 33 µM (inactive) and 65.8 µM (inactive). For the same compound, the GI50 (CAKI-1) was 59.2 µM (inactive), the GI50 (A549) was 65.5 µM (inactive) and the GI50 (MCF7) was 57.3 µM (inactive) and 28.8 µM (inactive). The GI50 (COLO 205) was > 100 µM (inactive) and 50.4 µM (inactive), the GI50 (PC-3) was 59.6 µM (inactive) and 34.4 µM (inactive) and the GI50 (HCC 2998) was 47.6 µM (inactive) and 61.1 µM (inactive). The GI50 (HT-29) was 33.1 µM (inactive) and 58.2 µM (inactive), the GI50 (NCI-H460) was > 100 µM (inactive) and 61.4 µM (inactive) and the GI50 (Hs-578T) was 40.4 µM (inactive) and 36.2 µM (inactive). The GI50 (UO-31) was > 100 µM (inactive) and 55.3 µM (inactive), the GI50 (EKVX) was 26.6 µM (inactive) and the GI50 (SF-295) was 78 µM (inactive). For the same compound, the GI50 (UACC-62) was 30.3 µM (inactive) and 33 µM (inactive), the GI50 (Malme-3M) was > 100 µM (inactive) and 56.2 µM (inactive) and the GI50 (SF-539) was 35.2 µM (inactive) and 22.8 µM (inactive). For the same compound, the GI50 (MOLT-4) was 20.7 µM (inactive) and 27.8 µM (inactive), the GI50 (T47D) was 40.9 µM (inactive) and 64.1 µM (inactive) and the GI50 (IGROV-1) was > 100 µM (inactive) and 74.5 µM (inactive). For the same compound, the GI50 (KM12) was 74.8 µM (inactive), the GI50 (SR) was 24.9 µM (inactive) and 37.3 µM (inactive) and the GI50 (NCI-H522) was 43.5 µM (inactive) and 22.6 µM (inactive). For the same compound, the GI50 (NCI-H226) was 55.5 µM (inactive) and 44.8 µM (inactive), the GI50 (OVCAR-5) was 61 µM (inactive) and the GI50 (SNB-19) was 97.3 µM (inactive). For the same compound, the GI50 (HOP-62) was > 100 µM (inactive), the GI50 (RPMI-8226) was 32.6 µM (inactive) and 26.5 µM (inactive) and the GI50 (BT-549) was 62.1 µM (inactive) and 32.1 µM (inactive). The GI50 (MDA-MB-231) was 37.9 µM (inactive) and 35.6 µM (inactive), the GI50 (LOX IMVI) was 27.5 µM (inactive) and 29.3 µM (inactive) and the GI50 (SW-620) was 37.1 µM (inactive).
